{"source": "patent US20240389594A1", "about": "(priority 2020, published 2024)", "assay_type_in_all_cases": "cell-based", "key": {"[1]": {"system": "Alternaria solani", "experiment": "Microtest, early blight caused by Alternaria solani (ALTESO), Example 1", "details": "single compound, 7 days"}, "[2]": {"system": "Colletotrichum orbiculare", "experiment": "Microtiterplate test, anthracnose caused by Colletotrichum orbiculare (COLLLA), Example 1", "details": "single compound, 7 days"}, "[3]": {"system": "Pyricularia oryzae", "details": "PYRIOR, single compound, 7 days"}, "[4]": {"system": "Septoria tritici", "details": "7 days"}, "[5]": {"system": "Botrytis cinerea"}, "[6]": {"system": "Septoria tritici", "experiment": "Microtest, leaf blotch on wheat caused by Septoria tritici (SEPTTR), Example 2", "details": "single compound, 7 days"}}, "note": "Where two headings read alike, the source gives them in different places.", "data": [{"smiles": "CCC(=O)Oc1c(OC)ccnc1C(=O)N[C@@H](C)C(=O)O[C@@H](C)[C@@H](C)c1ccccc1C", "note": "[Compound II-1, [(1 S,2S)-1-methyl-2-(o-tolyl)propyl] (2S)-2-[(4-methoxy-3-propanoyloxy-pyridine-2-carbonyl)amino]propanoate]", "values": [{"measurement": "Observed efficacy", "setting": "[1]; 1 ppm", "result": 42, "unit": "%"}, {"measurement": "Observed efficacy", "setting": "[2]; 0.25 ppm", "result": 0, "unit": "%"}, {"measurement": "Observed efficacy", "setting": "[2]; 1 ppm", "result": 0, "unit": "%"}, {"measurement": "Observed efficacy", "setting": "[3]; 1 ppm", "result": 10, "unit": "%"}, {"measurement": "Observed efficacy", "setting": "[4]", "result": 15, "unit": "%"}, {"measurement": "Observed efficacy", "setting": "[5]", "result": 13, "unit": "%"}]}, {"smiles": "Cc1cccc(-n2nnn(C)c2=O)c1COc1ccn(-c2ccc(Cl)cc2)n1", "note": "[Methyltetraprol, metyltetraprole]", "values": [{"measurement": "Observed efficacy", "setting": "[1]; 0.004 ppm", "result": 12, "unit": "%"}, {"measurement": "Observed efficacy", "setting": "[1]; 0.016 ppm", "result": 31, "unit": "%"}, {"measurement": "Observed efficacy", "setting": "[2]; 0.063 ppm", "result": 0, "unit": "%"}, {"measurement": "Observed efficacy", "setting": "[3]; 0.004 ppm", "result": 3, "unit": "%"}, {"measurement": "Observed efficacy", "setting": "[3]; 0.016 ppm", "result": 11, "unit": "%"}, {"measurement": "Observed efficacy", "setting": "[6]; 0.004 ppm", "result": 0, "unit": "%"}, {"measurement": "Observed efficacy", "setting": "[5]; 7 days", "result": 52, "unit": "%"}]}, {"smiles": "CON(Cc1ccc(-c2noc(C(F)(F)F)n2)cc1)C(=O)C1CC1", "note": "[Compound II-2, N-methoxy-N-[[4-[5-(trifluoromethyl)-1,2,4-oxadiazol-3-yl]phenyl]methyl]cyclopropanecarboxamide]", "values": [{"measurement": "Observed efficacy", "setting": "[6]; 0.25 ppm", "result": 9, "unit": "%"}]}]}
